Consider 21 compounds from US20180099931A1 (AbbVie S.à.r.l., priority 2016, published 2018).

For orientation: EC50 means the concentration needed to bring the measured effect to its halfway point.

This assay addresses T1, F508delCFTR (Homo sapiens, UniProt P13569, DEL508-508).
T1 construct: expressed in transfected cells; host or cells: CFBE41o- human lung-derived epithelial cells (CFBE4lo-F508delCFTR-HRP), doxycycline-inducible
The assay is described as follows: Cell Surface Expression-Horse Radish Peroxidase (CSE-HRP) Assay.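 For Maximum % activity (with co-corrector): co-corrector and positive control are both the same reference corrector at 2 µM.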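 For Maximum % activity (without co-corrector): percent of the 2 µM on-plate positive control corrector response above DMSO.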 The assay is classed as cell-based. The following applies: for Maximum % activity (with co-corrector): with co-corrector (2 μM); for Emax: read-out: Maximum % activity (without co-corrector).

[1] abbreviates: test compound without co-corrector, read-out: EC50 (without co-corrector).
[2] abbreviates: with co-corrector (2 μM of 3-[(2R,4R)-4-({[1-(2,2-difluoro-1,3-benzodioxol-5-yl)cyclopropyl]carbonyl}amino)-7-methoxy-3,4-dihydro-2H-chromen-2-yl]benzoic acid), read-out: EC50 (with co-corrector).
[3] abbreviates: maximum at any tested concentration, normalized to on-plate positive control.
Setting [4] is: without co-corrector, maximum at any tested concentration, normalized to on-plate positive control.

Structures are written as SMILES. Where two headings read alike, the source gives them in different places.

T1 sequence (P13569 with tags, fused parts or gaps DEL508-508): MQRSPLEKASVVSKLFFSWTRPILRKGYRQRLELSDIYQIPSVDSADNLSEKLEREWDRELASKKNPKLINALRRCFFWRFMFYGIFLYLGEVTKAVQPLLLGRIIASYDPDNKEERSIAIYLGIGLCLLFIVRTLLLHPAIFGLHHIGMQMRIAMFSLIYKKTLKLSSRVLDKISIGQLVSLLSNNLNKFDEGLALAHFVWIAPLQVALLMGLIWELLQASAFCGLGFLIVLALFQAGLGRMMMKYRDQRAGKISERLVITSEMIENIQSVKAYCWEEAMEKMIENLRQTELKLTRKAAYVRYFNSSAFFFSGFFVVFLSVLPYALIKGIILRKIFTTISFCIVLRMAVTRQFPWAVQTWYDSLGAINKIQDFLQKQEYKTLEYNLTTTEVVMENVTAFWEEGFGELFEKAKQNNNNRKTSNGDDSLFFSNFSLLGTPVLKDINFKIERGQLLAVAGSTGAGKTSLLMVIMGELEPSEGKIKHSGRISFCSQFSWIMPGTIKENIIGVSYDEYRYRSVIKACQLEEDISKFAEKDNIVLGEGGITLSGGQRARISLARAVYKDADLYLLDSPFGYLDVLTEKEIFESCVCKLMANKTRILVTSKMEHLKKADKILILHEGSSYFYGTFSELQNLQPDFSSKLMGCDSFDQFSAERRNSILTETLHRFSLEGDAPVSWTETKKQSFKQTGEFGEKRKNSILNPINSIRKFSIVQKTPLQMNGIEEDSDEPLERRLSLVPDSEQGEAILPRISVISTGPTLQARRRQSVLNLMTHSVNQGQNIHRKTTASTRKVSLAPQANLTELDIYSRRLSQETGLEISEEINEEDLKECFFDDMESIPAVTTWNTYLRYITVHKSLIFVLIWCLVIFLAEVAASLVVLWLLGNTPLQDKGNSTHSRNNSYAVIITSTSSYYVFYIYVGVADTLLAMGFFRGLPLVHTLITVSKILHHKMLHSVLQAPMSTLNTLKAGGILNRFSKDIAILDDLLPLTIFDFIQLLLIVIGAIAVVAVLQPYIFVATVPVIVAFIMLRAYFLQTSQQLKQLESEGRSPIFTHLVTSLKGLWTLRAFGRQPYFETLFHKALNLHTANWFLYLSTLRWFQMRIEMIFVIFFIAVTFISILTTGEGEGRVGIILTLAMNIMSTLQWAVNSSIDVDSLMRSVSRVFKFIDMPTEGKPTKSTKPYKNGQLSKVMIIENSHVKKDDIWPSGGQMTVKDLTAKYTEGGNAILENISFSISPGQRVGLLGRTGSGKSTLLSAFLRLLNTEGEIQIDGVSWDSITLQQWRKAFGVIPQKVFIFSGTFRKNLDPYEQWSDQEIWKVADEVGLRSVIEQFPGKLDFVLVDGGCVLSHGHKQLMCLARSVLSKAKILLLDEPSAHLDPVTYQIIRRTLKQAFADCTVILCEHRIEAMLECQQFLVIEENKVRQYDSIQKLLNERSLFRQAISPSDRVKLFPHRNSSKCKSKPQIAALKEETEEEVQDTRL

On to `COc1ncc(C(C)(C)C)cc1CN[C@H]1[C@H](C(C)(C)C)[C@@H](C(=O)O)N(C(=O)C2CCCCC2)[C@H]1c1ccc(F)cc1` [Example I-130], for which the concentration for a half-maximal effect (EC50) under setting [1] is less than 1000 nM and the concentration for a half-maximal effect (EC50) under setting [2] was less than 1000 nM. In addition, under setting [3], the “Maximum % activity (with co-corrector)” value is given as “+++ (≥350)”. Moreover, the Emax under setting [4] was greater than 200%.

For the compound `COc1ncc(C2CCC2)cc1CN[C@H]1[C@H](C(C)(C)C)[C@@H](C(=O)O)N(C(=O)C2CCCCC2)[C@H]1c1cccnc1N(C)C` [Example I-131], the EC50 lay in the range of 1000 to 10000 nM under setting [1] and 1000 to 10000 nM under setting [2]. For the same compound, under setting [3], the “Maximum % activity (with co-corrector)” value is listed as “+++ (≥350)”. Further, under setting [4], the Emax is greater than 200%.

For `COc1ncc(C2CCCC2)cc1CN[C@H]1[C@H](C(C)(C)C)[C@@H](C(=O)O)N(C(=O)C2CCCCC2)[C@H]1c1cccnc1N(C)C` [Example I-132], the 50% effective concentration (EC50) under setting [1] fell in the range of 1000 to 10000 nM and the EC50 under setting [2] was in the range of 1000 to 10000 nM. Also, the “Maximum % activity (with co-corrector)” value under setting [3] is recorded as “+++ (≥350)”. The Emax under setting [4] was greater than 200%.

As for `COc1ncc(C2CC3CCC2C3)cc1CN[C@H]1[C@H](C(C)(C)C)[C@@H](C(=O)O)N(C(=O)C2CCCCC2)[C@H]1c1cccnc1N(C)C` (stereo partly drawn) [Example I-133], the EC50 under setting [1] was in the range of 1000 to 10000 nM and the EC50 under setting [2] was 1000 to 10000 nM. Besides, the “Maximum % activity (with co-corrector)” value under setting [3] is recorded as “+++ (≥350)”. In addition, the Emax under setting [4] was greater than 200%.

For `COc1ccc(Br)nc1CN[C@H]1[C@H](C(C)(C)C)[C@@H](C(=O)O)N(C(=O)C2CCCCC2)[C@H]1c1ccccc1` [Example I-134], the half-maximal effective concentration (EC50) was 1000 to 10000 nM under setting [1] and 1000 to 10000 nM under setting [2]. Besides, the “Maximum % activity (with co-corrector)” value under setting [3] was “+++ (≥350)”. In addition, under setting [4], the Emax lay in the range of 100 to 200%.

With `COc1ncc(C(C)(C)C)cc1CN[C@H]1[C@H](C(C)(C)C)[C@@H](C(=O)O)N(C(=O)C2CCCCC2)[C@H]1c1cccnc1OC` [Example I-135], the EC50 fell in the range of 1000 to 10000 nM under setting [1] and 1000 to 10000 nM under setting [2]. For the same compound, the “Maximum % activity (with co-corrector)” value under setting [3] was “+++ (≥350)”. Also, the Emax under setting [4] is greater than 200%.

Take `COc1ccc(C(F)(F)F)cc1CN[C@H]1[C@H](C2(C)CC2)[C@@H](C(=O)O)N(C(=O)C2CCCCC2)[C@H]1c1ccccc1` [Example I-136]: the EC50 was in the range of 1000 to 10000 nM under setting [1] and 1000 to 10000 nM under setting [2]. In addition, the “Maximum % activity (with co-corrector)” value under setting [3] is “+++ (≥350)”. Besides, the Emax under setting [4] lay in the range of 100 to 200%.

With `COc1ccc(C(C)(C)C)cc1CN[C@H]1[C@H](C(C)(C)C)[C@@H](C(=O)O)N(C(=O)[C@@H](C)Oc2ccccc2)[C@H]1c1ccccc1` [Example I-137], the EC50 lay within 1000 to 10000 nM under setting [1] and 1000 to 10000 nM under setting [2]. The “Maximum % activity (with co-corrector)” value under setting [3] is “+++ (≥350)”. In addition, the Emax under setting [4] was greater than 200%.

Consider `COc1ccc(C(C)(C)C)cc1CN[C@H]1[C@H](C(C)(C)C)[C@@H](C(=O)O)N(C(=O)C2CCCCN2S(C)(=O)=O)[C@H]1c1ccccc1` (stereo partly drawn) [Example I-138], for which the EC50 by setting is: under setting [1], 1000 to 10000 nM; under setting [2], 1000 to 10000 nM. Moreover, under setting [3], the “Maximum % activity (with co-corrector)” value is “+++ (≥350)”. The Emax under setting [4] was greater than 200%.

On to `COc1ncc(-c2ccccc2F)cc1CN[C@H]1[C@H](C(C)(C)C)[C@@H](C(=O)O)N(C(=O)C2CCCCC2)[C@H]1c1ccccc1` [Example I-140], for which the EC50 reads like this: under setting [1], less than 1000 nM; under setting [2], less than 1000 nM. The “Maximum % activity (with co-corrector)” value under setting [3] is given as “+++ (≥350)”. The Emax under setting [4] is greater than 200%.

Turning to `COc1ccc(C2(C(F)(F)F)CC2)cc1CN[C@H]1[C@H](C(C)(C)C)[C@@H](C(=O)O)N(C(=O)OC(C)C)[C@H]1c1ccccc1` [Example I-141], the EC50 reads like this: under setting [1], 1000 to 10000 nM; under setting [2], less than 1000 nM. Moreover, under setting [3], the “Maximum % activity (with co-corrector)” value is “+++ (≥350)”. The Emax under setting [4] is greater than 200%.

In the case of `COc1ncc(C(C)(C)C)cc1CN[C@H]1[C@H](C(C)(C)C)[C@@H](C(=O)O)N(C(=O)[C@@H]2CCCCO2)[C@H]1c1cccnc1N(C)C` [Example I-142], the concentration giving a half-maximal response (EC50) was in the range of 1000 to 10000 nM under setting [1] and 1000 to 10000 nM under setting [2]. Moreover, under setting [3], the “Maximum % activity (with co-corrector)” value was “+++ (≥350)”. Under setting [4], the Emax is greater than 200%.

For the compound `COc1ccc(C(C)(C)C)cc1CN[C@H]1[C@H](C(C)(C)C)[C@@H](C(=O)O)N(C(=O)c2cnn3ccccc23)[C@H]1c1ccccc1` [Example I-143], the EC50 was in the range of 1000 to 10000 nM under setting [1] and 1000 to 10000 nM under setting [2]. Besides, the “Maximum % activity (with co-corrector)” value under setting [3] was “+++ (≥350)”. The Emax under setting [4] was less than 100%.

Take `CCc1c(C(=O)N2[C@H](C(=O)O)[C@@H](C(C)(C)C)[C@H](NCc3cc(C(C)(C)C)ccc3OC)[C@@H]2c2ccccc2)cnn1-c1ccc(OC)nn1` [Example I-144]: the EC50 is 1000 to 10000 nM under setting [1] and 1000 to 10000 nM under setting [2]. Also, the “Maximum % activity (with co-corrector)” value under setting [3] is recorded as “+++ (≥350)”. Moreover, the Emax under setting [4] fell in the range of 100 to 200%.

`COc1ccc(C(C)(C)C)cc1CN[C@H]1[C@H](C(C)(C)C)[C@@H](C(=O)O)N(C(=O)c2cnn(C(C)(C)C)c2C(C)C)[C@H]1c1ccccc1` [Example I-145]: the EC50 is, setting by setting: under setting [1], 1000 to 10000 nM; under setting [2], 1000 to 10000 nM. The “Maximum % activity (with co-corrector)” value under setting [3] was “+++ (≥350)”. Further, the Emax under setting [4] was 100 to 200%.

Take `COc1ccc(C(C)(C)C)cc1CN[C@H]1[C@H](C(C)(C)C)[C@@H](C(=O)O)N(C(=O)c2c(C)nn(-c3ccccc3F)c2C)[C@H]1c1ccccc1` [Example I-146]: the EC50 reads like this: under setting [1], 1000 to 10000 nM; under setting [2], less than 1000 nM. For the same compound, under setting [3], the “Maximum % activity (with co-corrector)” value is “+++ (≥350)”. The Emax under setting [4] is greater than 200%.

As to `COc1ccc(C(C)(C)C)cc1CN[C@H]1[C@H](C(C)(C)C)[C@@H](C(=O)O)N(C(=O)C2(C)CCc3cc(C)ccc32)[C@H]1c1ccccc1` (stereo partly drawn) [Example I-147], the EC50 runs as follows: under setting [1], 1000 to 10000 nM; under setting [2], 1000 to 10000 nM. The “Maximum % activity (with co-corrector)” value under setting [3] is on record as “+++ (≥350)”. The Emax under setting [4] is less than 100%.

For the compound `COc1ccc(C(C)(C)C)cc1CN[C@H]1[C@H](C(C)(C)C)[C@@H](C(=O)O)N(C(=O)CC2(O)CCC2)[C@H]1c1ccccc1` [Example I-148], the half-maximal effective concentration (EC50) runs as follows: under setting [1], 1000 to 10000 nM; under setting [2], 1000 to 10000 nM. In addition, the “Maximum % activity (with co-corrector)” value under setting [3] is listed as “+++ (≥350)”. Also, the Emax under setting [4] was greater than 200%.

In the case of `COc1ccc(C(C)(C)C)cc1CN[C@H]1[C@H](C(C)(C)C)[C@@H](C(=O)O)N(C(=O)C2CCCCC2C(=O)N2CCC2)[C@H]1c1ccccc1` (stereo partly drawn) [Example I-149], the EC50 by setting is: under setting [1], 1000 to 10000 nM; under setting [2], 1000 to 10000 nM. For the same compound, under setting [3], the “Maximum % activity (with co-corrector)” value is recorded as “+++ (≥350)”. The Emax under setting [4] was greater than 200%.

Turning to `COc1ccc(C(C)(C)C)cc1CN[C@H]1[C@H](C(C)(C)C)[C@@H](C(=O)O)N(C(=O)Oc2ccccc2)[C@H]1c1ccccc1` [Example I-153], the concentration giving a half-maximal response (EC50) was less than 1000 nM and the Emax is greater than 200%. In addition, the 50% effective concentration (EC50) (EC50 (without co-corrector), test compound without co-corrector) was in the range of 1000 to 10000 nM. The “Maximum % activity (with co-corrector)” value under setting [3] is “+++ (≥350)”.

Turning to `COc1ccc(C(C)(C)C)cc1CN[C@H]1[C@H](C(C)(C)C)[C@@H](C(=O)O)N(C(=O)OCc2ccccc2Cl)[C@H]1c1ccccc1` [Example I-154], the EC50 runs as follows: under setting [1], less than 1000 nM; under setting [2], less than 1000 nM. Moreover, the “Maximum % activity (with co-corrector)” value under setting [3] is “+++ (≥350)”. Further, under setting [4], the Emax was 100 to 200%.
